Results as given in ChEMBL document CHEMBL1151335, “Clavaric acid: a triterpenoid inhibitor of farnesyl-protein transferase from Clavariadelphus truncatus” (J Nat Prod, 1998).
Activity calls are given as the source filed them. No cut-off for these calls is given here.

Legend:
Homo sapiens = organism: Homo sapiens; assay: (§1) Inhibition of human recombinant protein farnesyl transferase expressed in Escherichia coli
[1] = as §1
[2] = molecular target: T1, Squalene synthase (Homo sapiens) (UniProt P37268); assay: Inhibition of squalene synthase
T1 sequence (whole entry): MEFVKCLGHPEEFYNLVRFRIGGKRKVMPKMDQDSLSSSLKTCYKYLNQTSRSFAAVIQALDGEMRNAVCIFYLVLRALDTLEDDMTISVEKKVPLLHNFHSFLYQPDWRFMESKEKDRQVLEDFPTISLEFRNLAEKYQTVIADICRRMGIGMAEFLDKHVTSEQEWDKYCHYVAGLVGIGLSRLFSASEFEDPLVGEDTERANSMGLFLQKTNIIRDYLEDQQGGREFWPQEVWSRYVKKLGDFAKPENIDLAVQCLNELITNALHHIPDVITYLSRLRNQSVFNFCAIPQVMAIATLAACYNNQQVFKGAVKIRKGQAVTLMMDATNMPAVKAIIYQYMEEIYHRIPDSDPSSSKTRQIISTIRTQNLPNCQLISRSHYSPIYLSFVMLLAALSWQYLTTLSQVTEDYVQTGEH

[3] = Inhibition of geranylgeranyl protein transferase
NIH3T3 = assay: Inhibition of Ras expression in mouse NIH/3T3 cells at 50 uM; type: functional, cell-based
[4] = Cytotoxicity against mouse NIH/3T3 cells at 50 uM; type: cell-based; settings: nih3t3, 50 µM

In the case of COC(=O)C[C@](C)(O)CC(=O)O[C@@H]1C[C@]2(C)C3=C(CC[C@H]2C(C)(C)C1=O)[C@]1(C)CC[C@H]([C@H](C)CCC(O)C(C)(C)O)[C@@]1(C)CC3 (some centres not stated), the Activity (Homo sapiens) is reported as “inactive”.

With C[C@H](CCC(O)C(C)(C)O)[C@H]1CC[C@@]2(C)C3=C(CC[C@]12C)[C@@]1(C)C[C@@H](OC(=O)CC(C)(O)CC(=O)O)C(=O)C(C)(C)[C@@H]1CC3 (some centres not stated) [CLAVARIC ACID] the IC50 [1] was 1.3 µM, the Activity [2] was “inactive” and the Activity [3] was “inactive”. The Activity (NIH3T3) was “Active” and the Activity [4] was “Non-toxic”.

Work on C[C@H](CCC(O)C(C)(C)O)[C@H]1CC[C@@]2(C)C3=C(CC[C@]12C)[C@@]1(C)C[C@@H](O)C(=O)C(C)(C)[C@@H]1CC3 (some centres not stated) [CLAVARINONE] yielded an IC50 [1] of 10.5 µM.
